{"source": "ChEMBL document CHEMBL2074459", "about": "“Coordinate induction by antioxidants of UDP-glucuronosyltransferase UGT1A6 and the apical conjugate export pump MRP2 (multidrug resistance protein 2) in Caco-2 cells” (Biochem Pharmacol, 2000)", "target": "ATP-binding cassette sub-family C member 2 (Homo sapiens, UniProt Q92887)", "sequence (Q92887 whole entry)": "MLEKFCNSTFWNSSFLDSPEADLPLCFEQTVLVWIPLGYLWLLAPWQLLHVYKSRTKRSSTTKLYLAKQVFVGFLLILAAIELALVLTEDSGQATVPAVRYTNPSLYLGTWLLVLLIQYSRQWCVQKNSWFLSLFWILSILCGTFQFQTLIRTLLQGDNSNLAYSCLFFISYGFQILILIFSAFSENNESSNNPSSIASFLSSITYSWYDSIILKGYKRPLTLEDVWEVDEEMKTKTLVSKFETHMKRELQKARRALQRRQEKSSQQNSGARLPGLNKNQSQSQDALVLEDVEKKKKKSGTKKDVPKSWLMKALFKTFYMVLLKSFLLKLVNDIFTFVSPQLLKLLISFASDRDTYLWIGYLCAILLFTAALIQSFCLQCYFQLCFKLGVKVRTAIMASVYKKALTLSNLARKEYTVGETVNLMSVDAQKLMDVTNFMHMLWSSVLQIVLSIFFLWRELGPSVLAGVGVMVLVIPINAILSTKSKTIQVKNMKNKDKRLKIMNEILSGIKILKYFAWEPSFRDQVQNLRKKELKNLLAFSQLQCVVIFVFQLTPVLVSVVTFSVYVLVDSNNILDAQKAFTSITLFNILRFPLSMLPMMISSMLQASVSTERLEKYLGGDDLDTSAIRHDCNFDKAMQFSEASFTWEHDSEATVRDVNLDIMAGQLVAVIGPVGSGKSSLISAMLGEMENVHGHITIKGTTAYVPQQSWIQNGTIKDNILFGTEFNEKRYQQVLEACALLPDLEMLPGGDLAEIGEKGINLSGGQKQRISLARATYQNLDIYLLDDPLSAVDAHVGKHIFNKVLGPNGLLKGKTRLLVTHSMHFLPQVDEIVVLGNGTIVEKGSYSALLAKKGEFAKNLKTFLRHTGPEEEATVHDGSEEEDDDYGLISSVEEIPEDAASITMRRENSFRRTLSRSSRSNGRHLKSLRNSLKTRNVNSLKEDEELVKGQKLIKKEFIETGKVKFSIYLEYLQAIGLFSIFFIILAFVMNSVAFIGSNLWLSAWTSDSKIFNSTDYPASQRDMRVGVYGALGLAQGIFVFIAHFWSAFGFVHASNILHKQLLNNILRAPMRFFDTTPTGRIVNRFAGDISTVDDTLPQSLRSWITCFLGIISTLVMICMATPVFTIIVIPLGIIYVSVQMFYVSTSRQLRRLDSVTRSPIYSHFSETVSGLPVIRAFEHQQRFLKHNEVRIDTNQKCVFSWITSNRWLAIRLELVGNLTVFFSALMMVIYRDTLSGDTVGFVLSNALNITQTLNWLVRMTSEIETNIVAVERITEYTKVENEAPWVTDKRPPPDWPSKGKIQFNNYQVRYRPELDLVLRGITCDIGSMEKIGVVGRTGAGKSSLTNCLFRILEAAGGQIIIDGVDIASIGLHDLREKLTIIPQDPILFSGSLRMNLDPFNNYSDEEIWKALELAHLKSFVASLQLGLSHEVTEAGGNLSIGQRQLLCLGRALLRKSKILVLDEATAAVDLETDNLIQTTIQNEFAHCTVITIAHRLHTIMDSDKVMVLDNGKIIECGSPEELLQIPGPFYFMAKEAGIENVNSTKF", "experiment": "TP_TRANSPORTER: Immunoblot analysis in Caco-2 cells", "type": "functional, cell-based", "data": [{"smiles": "O=c1c(O)c(-c2ccc(O)c(O)c2)oc2cc(O)cc(O)c12", "note": "[QUERCETIN]", "values": [{"measurement": "Activity", "value": "inducer [+]"}]}]}
